Data: patent EP0313782A2, “Antimycotic preparations” (BAYER AG, priority 1987, dated 1989)

Tested on: Candida-Zellen
Test: Antimycotic in vivo efficacy (oral) in mouse candidiasis
Design: species or system Mäuse vom Typ SPF-CF₁
Details: for Wirkung: mice infected i.v. with 1 - 2 x 10⁶ Candida cells, oral treatment 1 h before and 7 h after infection, 10 - 100 mg/kg each, survivors on day 6 p.i. (untreated controls about 5 %); for Wirkung (comparison with the known compounds (A) and (B)): same test, statement in words in the text
Protocol: Antimykotische in-vivo-Wirksamkeit (oral) bei Mäusecandidose
Mäuse vom Typ SPF-CF₁ wurden intravenös mit 1 - 2 x 10⁶ logarithmisch wachsenden Candida-Zellen, die in physiologischer Kochsalzlösung suspendiert werden, infiziert. Eine Stunde vor und sieben Stunden nach der Infektion werden die Tiere mit jeweils 10 - 100 mg/kg Körpergewicht der Präparate oral behandelt.
Unbehandelte Tiere starben 3 bis 6 Tage post infektionem. Die Überlebensrate am 6.Tag post infektionem betrug bei unbehandelten Kontrolltieren etwa 5 %.

Structure (SMILES) | Wirkung | Wirkung (comparison with the known compounds (A) and (B))
OC(Cn1cncn1)(c1ccc(F)cc1F)C1(SC(F)(F)F)CC1 (stereo not drawn) [I-1, 1-(2,4-Difluorphenyl)-1-hydroxy-2-(1,2,4-triazol-1-yl)-1-(1-trifluormethylmercapto-cycloprop-1-yl)-ethan] | +++++ (sehr gute Wirkung = 90 % Überlebende am 6.Tag.p.i.) | bessere Wirkung
OC(Cn1cncn1)(c1ccc(F)cc1)C1(SC(F)(F)F)CC1 (stereo not drawn) [I-4] | +++++ (sehr gute Wirkung = 90 % Überlebende am 6.Tag.p.i.) | bessere Wirkung
[O-][S+](C(F)(F)F)C1(C(O)(Cn2cncn2)c2ccc(F)cc2F)CC1 (stereo not drawn) [I-2, 1-(2,4-Difluorphenyl)-1-hydroxy-2-(1,2,4-triazol-1-yl)-1-(trifluormethylsulfoxy-cycloprop-1-yl)-ethan] | +++++ (sehr gute Wirkung = 90 % Überlebende am 6.Tag.p.i.) | bessere Wirkung
